Reference: patent publication US4185016A, “Pyrrolo benzodiazepine compounds” (priority 1977, dated 1980)
Read-outs that look alike come from different tables or passages of the source.

Experiments:
in vivo = assay: in vivo; set-up: species or system DD strain male mice; settings: mouse, ip
Protocol: LD50 values of the compounds of this invention were determined by the use of DD strain male mice having body weight of 18 to 20 g, 5 heads per one group. Each test compound was dissolved into physiological solution of sodium chloride containing 1% dimethyl sulfoxide and administered intraperitoneally to the animals. The dose levels were 20 mg/kg, 16.7 mg/kg, 13.9 mg/kg, 11.6 mg/kg and 9.6 mg/kg. One week after the administration, LD50 was determined.
(§1) The compounds used in the antitumor activity test and the acute toxicity test were the aforementioned novel compounds. The results of tests concerning the compounds of general formula (I) are listed in Table 1, while those concerning the compounds of general formula (II) are listed in Table 2.

[1] = U.S. Pat. No. 3,361,742 and J. Am. Chem. Soc., 87, 5791-5793 (1965); cited from earlier work
[2] = U.S. Pat. No. 3,361,742 and J. Am. Chem. Soc., 87, 5791-5793 (1965); cited from earlier work; remark: listed apart in the source
Leukaemia P388 = format: in vivo, CDF1 male mice; settings: ip
From the text: CDF1 male mice having body weight of 18 to 20 g, 10 heads per one group, were inoculated with 2×10^5 cells/mouse Leukaemia P388. Twenty four hours after the inoculation, an appointed dose of test compound was intraperitoneally administered to the animals of administration group, after which the administration was repeated for successive 6 days. The survival day numbers of the animals were counted.
Survival time of the animals was expressed by average survival day number.
as §1

[3] = intraperitoneal, one week after administration, read-out: Acute toxicity LD50

| SMILES | LD50 at 168 h (in vivo; [3]) [mg/kg] | also measured |
| --- | --- | --- |
| COC1Nc2c(ccc(C)c2O)C(=O)N2CCCC12 (centres unmarked) [4, 11] | – | LD50 at 168 h (in vivo): 13.8 mg/kg |
| Cc1ccc2c(c1O)NC(O)C1CC(/C=C/C(N)=O)=CN1C2=O (centres unmarked) [5,10,11,11a-tetrahydro-9,11-dihydroxy-8-methyl-5-oxo-1H-pyrrolo[2,1-C][1,4]-benzodiazepin-2-acrylamide] | – | antitumor activity [1]: antitumor; antibacterial activity [2]: antibacterial |
| COC1Nc2c(O)cccc2C(=O)N2CCCC12 (centres unmarked) [5, 13] | 12.8 | Antitumor activity, Life-prolongation rate (Leukaemia P388; 2.5 mg/kg): 127.0%; Antitumor activity, Life-prolongation rate (Leukaemia P388; 5 mg/kg): 148.0% |
| COc1ccc2c(c1O)NC(OC)C1CCCN1C2=O (centres unmarked) [15, 6] | 12.7 | – |
| COC1Nc2c(ccc(C)c2OC(C)=O)C(=O)N2CCCC12 (centres unmarked) [17, 21] | 13.9 | Antitumor activity, Life-prolongation rate (Leukaemia P388; 2.5 mg/kg): 125.0%; Antitumor activity, Life-prolongation rate (Leukaemia P388; 5 mg/kg): 149.0% |
| CC(=O)Oc1c(C)ccc2c1N=CC1CCCN1C2=O (centres unmarked) [20, 19] | 12.8 | – |
| COC1Nc2c(OC(C)=O)cccc2C(=O)N2CCCC12 (centres unmarked) [24, 33] | 12.4 | Antitumor activity, Life-prolongation rate (Leukaemia P388; 2.5 mg/kg): 121.6%; Antitumor activity, Life-prolongation rate (Leukaemia P388; 5 mg/kg): 143.8% |
| CCOC1Nc2c(ccc(C)c2O)C(=O)N2CCCC12 (centres unmarked) [Example 7, 2,3,5,10,11,11a-hexahydro-11-ethoxy-9-hydroxy-8-methyl-1H-pyrrolo[2,1-C][1,4]benzodiazepin-5-one] | 13.3 | – |
| Cc1ccc2c(c1O)N=CC1CCCN1C2=O (centres unmarked) [Example 8, 2,3,5,11a-tetrahydro-9-hydroxy-8-methyl-1H-pyrrolo[2,1-C][1,4]benzodiazepin-5-one] | 13.6 | Antitumor activity, Life-prolongation rate (Leukaemia P388; 2.5 mg/kg): 126.7%; Antitumor activity, Life-prolongation rate (Leukaemia P388; 5 mg/kg): 148.7% |
| O=C1c2cccc(O)c2N=CC2CCCN12 (centres unmarked) [Example 9, 2,3,5,11a-tetrahydro-9-hydroxy-1H-pyrrolo[2,1-C][1,4]benzodiazepin-5-one] | 13.1 | – |
| COc1ccc2c(c1O)N=CC1CCCN1C2=O (centres unmarked) [Example 10, 2,3,5,11a-tetrahydro-9-hydroxy-8-methoxy-1H-pyrrolo[2,1-C][1,4]benzodiazepin-5-one] | 13.3 | Antitumor activity, Life-prolongation rate (Leukaemia P388; 2.5 mg/kg): 126.7%; Antitumor activity, Life-prolongation rate (Leukaemia P388; 5 mg/kg): 145.6% |
| Cc1ccc2c(c1O)NC(O)C1CCCN1C2=O (centres unmarked) [Example 12, 2,3,5,10,11,11a-hexahydro-9,11-dihydroxy-8-methyl-1H-pyrrolo[2,1-C][1,4]benzodiazepin-5-one] | 12.9 | – |
| O=C1c2cccc(O)c2NC(O)C2CCCN12 (centres unmarked) [Example 14, 2,3,5,10,11,11a-hexahydro-9,11-dihydroxy-1H-pyrrolo[2,1-C][1,4]benzodiazepin-5-one] | 12.5 | – |
| COc1ccc2c(c1O)NC(O)C1CCCN1C2=O (centres unmarked) [Example 16, 2,3,5,10,11,11a-hexahydro-9,11-dihydroxy-8-methoxy-1H-pyrrolo[2,1-C][1,4]benzodiazepin-5-one] | 12.6 | – |
| CCOC1Nc2c(ccc(C)c2OC(C)=O)C(=O)N2CCCC12 (centres unmarked) [Example 18, 2,3,5,10,11,11a-hexahydro-9-acetoxy-11-ethoxy-8-methyl-1H-pyrrolo[2,1-C][1,4]benzodiazepin-5-one] | 12.8 | – |
| CC(=O)Oc1c(C)ccc2c1NC(O)C1CCCN1C2=O (centres unmarked) [Example 22, 2,3,5,10,11,11a-hexahydro-9-acetoxy-11-hydroxy-8-methyl-1H-pyrrolo[2,1-C][1,4]benzodiazepin-5-one] | 13.5 | – |
| CC(=O)Oc1cccc2c1NC(O)C1CCCN1C2=O (centres unmarked) [Example 23, 2,3,5,10,11,11a-hexahydro-9-acetoxy-11-hydroxy-1H-pyrrolo[2,1-C][1,4]-benzodiazepin-5-one] | 12.7 | – |
| CCOC1Nc2c(O)cccc2C(=O)N2CCCC12 (centres unmarked) [Example 25, 2,3,5,10,11,11a-hexahydro-11-ethoxy-9-hydroxy-1H-pyrrolo[2,1-C][1,4]benzodiazepin-5-one] | 13 | – |
| CCOC1Nc2c(OC(C)=O)cccc2C(=O)N2CCCC12 (centres unmarked) [Example 26, 2,3,5,10,11,11a-hexahydro-9-acetoxy-11-ethoxy-1H-pyrrolo[2,1-C][1,4]benzodiazepin-5-one] | 13.2 | – |
| COc1ccc2c(c1OC(C)=O)NC(O)C1CCCN1C2=O (centres unmarked) [Example 27, 2,3,5,10,11,11a-hexahydro-9-acetoxy-11-hydroxy-8-methoxy-1H-pyrrolo[2,1-C][1,4]benzodiazepin-5-one] | 12.4 | – |
| COc1ccc2c(c1OC(C)=O)NC(OC)C1CCCN1C2=O (centres unmarked) [Example 28, 2,3,5,10,11,11a-hexahydro-9-acetoxy-8,11-dimethoxy-1H-pyrrolo[2,1-C][1,4]benzodiazepin-5-one] | 12.3 | – |
| CCOC1Nc2c(ccc(OC)c2O)C(=O)N2CCCC12 (centres unmarked) [Example 29, 2,3,5,10,11,11a-hexahydro-11-ethoxy-9-hydroxy-8-methoxy-1H-pyrrolo[2,1-C][1,4]benzodiazepin-5-one] | 12.2 | Antitumor activity, Life-prolongation rate (Leukaemia P388; 2.5 mg/kg): 123.3%; Antitumor activity, Life-prolongation rate (Leukaemia P388; 5 mg/kg): 141.4% |
| CCOC1Nc2c(ccc(OC)c2OC(C)=O)C(=O)N2CCCC12 (centres unmarked) [Example 30, 2,3,5,10,11,11a-hexahydro-9-acetoxy-11-ethoxy-8-methoxy-1H-pyrrolo[2,1-C][1,4]benzodiazepin-5-one] | 12.7 | – |
| CC(=O)Oc1cccc2c1N=CC1CCCN1C2=O (centres unmarked) [Example 31, 2,3,5,11a-tetrahydro-9-acetoxy-1H-pyrrolo[2,1-C][1,4]benzodiazepin-5-one] | 13.4 | – |
| COc1ccc2c(c1OC(C)=O)N=CC1CCCN1C2=O (centres unmarked) [Example 32, 2,3,5,11a-tetrahydro-9-acetoxy-8-methoxy-1H-pyrrolo[2,1-C][1,4]benzodiazepin-5-one] | 13.7 | – |
